In ChEMBL document CHEMBL1201862, “PubChem BioAssay data set” (2004):
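Each compound was tested at five concentrations against cells in 96-well plates for 48 hours. GI50 = concentration required for 50% inhibition of growth.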 The source made the active and inactive calls. Cut-off read from the data, not from the text of the source: active = GI50 up to about 1.1 µM and inactive = higher.

Key:
Experiment in all cases: inhibition of tumour cell growth, NCI panel, 48 h
SW-620 = test system: SW-620
TK-10 = test system: TK-10
HT-29 = test system: HT-29
SF-268 = test system: SF-268
OVCAR-5 = test system: OVCAR-5
DU-145 = test system: DU-145
A498 = test system: A498
SK-MEL-5 = test system: SK-MEL-5
HOP-62 = test system: HOP-62
KM12 = test system: KM12
MCF7 = test system: MCF7
COLO 205 = test system: COLO 205
MOLT-4 = test system: MOLT-4
786-0 = test system: 786-0
MDA-MB-231 = test system: MDA-MB-231
UACC-62 = test system: UACC-62
UACC-257 = test system: UACC-257
SK-OV-3 = test system: SK-OV-3
LOX IMVI = test system: LOX IMVI
NCI-H23 = test system: NCI-H23

Compound	GI50 (SW-620)	GI50 (TK-10)	GI50 (HT-29)	GI50 (SF-268)	GI50 (OVCAR-5)	GI50 (DU-145)	GI50 (A498)	GI50 (SK-MEL-5)	GI50 (HOP-62)	GI50 (KM12)	GI50 (MCF7)	GI50 (COLO 205)	GI50 (MOLT-4)	GI50 (786-0)	GI50 (MDA-MB-231)	GI50 (UACC-62)	GI50 (UACC-257)	GI50 (SK-OV-3)	GI50 (LOX IMVI)	GI50 (NCI-H23)
CCOC(=O)C(C(=O)c1ccccc1C(=O)OC)=P(c1ccccc1)(c1ccccc1)c1ccccc1	> 10 µM (inactive)	> 10 µM (inactive)	> 10 µM (inactive)	> 10 µM (inactive)	> 10 µM (inactive)	> 10 µM (inactive)	> 10 µM (inactive)	> 10 µM (inactive)	> 10 µM (inactive)	> 10 µM (inactive)	> 10 µM (inactive)	> 10 µM (inactive)	> 10 µM (inactive)	> 10 µM (inactive)	> 10 µM (inactive)	> 10 µM (inactive)	> 10 µM (inactive)	> 10 µM (inactive)	> 10 µM (inactive)	> 10 µM (inactive)
COc1ncnc2c1cnn2Cc1cn(COCC(O)CO)nn1 (stereo not given)	> 100 µM (inactive)	> 100 µM (inactive)	> 100 µM (inactive)	16.3 µM (inactive)	> 100 µM (inactive)	> 100 µM (inactive)	> 100 µM (inactive)	> 100 µM (inactive)	> 100 µM (inactive)	> 100 µM (inactive)	> 100 µM (inactive)	> 100 µM (inactive)	> 100 µM (inactive)	> 100 µM (inactive)	> 100 µM (inactive)	> 100 µM (inactive)	> 100 µM (inactive)	> 100 µM (inactive)	> 100 µM (inactive)	> 100 µM (inactive)
COC(=O)C1=COc2c(n(C)c3ccccc23)-c2ccccc21	> 100 µM (inactive)	> 100 µM (inactive)	> 100 µM (inactive)	> 100 µM (inactive)	> 100 µM (inactive)	> 100 µM (inactive)	> 100 µM (inactive)	71.1 µM (inactive)	> 100 µM (inactive)	> 100 µM (inactive)	> 100 µM (inactive)	> 100 µM (inactive)	> 100 µM (inactive)	> 100 µM (inactive)	> 100 µM (inactive)	> 100 µM (inactive)	> 100 µM (inactive)	> 100 µM (inactive)	> 100 µM (inactive)	> 100 µM (inactive)
Cc1c(C(=O)c2ccc(N)c3ccccc23)c2ccccc2n1CCN1CCOCC1	26.1 µM (inactive)	31 µM (inactive)	22.4 µM (inactive)	28.6 µM (inactive)	25.9 µM (inactive)	31.1 µM (inactive)	29.3 µM (inactive)	15.5 µM (inactive)	5.74 µM (inactive)	3.38 µM (inactive)	21.2 µM (inactive)	27.5 µM (inactive)	12 µM (inactive)	28 µM (inactive)	12.6 µM (inactive)	16.4 µM (inactive)	17.3 µM (inactive)	1.97 µM (inactive)	22.5 µM (inactive)	29.7 µM (inactive)
COc1ccccc1C(=O)N(Cc1ccccc1)c1ccc(Cl)c(C(=O)OC(C)C)c1	31.8 µM (inactive)	26.8 µM (inactive)	16.6 µM (inactive)	42.3 µM (inactive)	> 63.1 µM (inactive)	32.4 µM (inactive)	37.3 µM (inactive)	11.7 µM (inactive)	18.8 µM (inactive)	21.2 µM (inactive)	47.8 µM (inactive)	20.9 µM (inactive)	14.4 µM (inactive)	25.9 µM (inactive)	25.9 µM (inactive)	19.8 µM (inactive)	14.6 µM (inactive)	25.4 µM (inactive)	28.2 µM (inactive)	20.6 µM (inactive)
COC1=C(N=[N+]=[N-])C(=O)c2ncccc2C1=O	1.95 µM (inactive)	10.9 µM (inactive)	18.4 µM (inactive)	14.5 µM (inactive)	19.5 µM (inactive)	20.8 µM (inactive)	17.1 µM (inactive)	10.1 µM (inactive)	15.8 µM (inactive)	15.6 µM (inactive)	1.82 µM (inactive)	3.04 µM (inactive)	0.887 µM (active)	8.79 µM (inactive)	12.4 µM (inactive)	7.82 µM (inactive)	4.34 µM (inactive)	15.2 µM (inactive)	3.3 µM (inactive)	5.36 µM (inactive)
Clc1cc(Cl)c2cc3cccc[n+]3cc2c1Cl	17.6 µM (inactive)	18.7 µM (inactive)	15.5 µM (inactive)	12.8 µM (inactive)	19.2 µM (inactive)	15.2 µM (inactive)	18.6 µM (inactive)	16 µM (inactive)	15.6 µM (inactive)	> 10 µM (inactive)	14.2 µM (inactive)	14.8 µM (inactive)	14 µM (inactive)	18.7 µM (inactive)	17.9 µM (inactive)	15.3 µM (inactive)	15.2 µM (inactive)	16.6 µM (inactive)	15.7 µM (inactive)	16.1 µM (inactive)
Cc1nnc2n1-c1ccccc1-c1[nH]c3ccccc3c1C2	> 100 µM (inactive)	> 100 µM (inactive)	68.2 µM (inactive)	> 100 µM (inactive)	> 100 µM (inactive)	> 100 µM (inactive)	19.2 µM (inactive)	26.2 µM (inactive)	58.9 µM (inactive)	94.4 µM (inactive)	> 100 µM (inactive)	45 µM (inactive)	45 µM (inactive)	83.8 µM (inactive)	58.5 µM (inactive)	25.1 µM (inactive)	59.8 µM (inactive)	> 100 µM (inactive)	89.9 µM (inactive)	63.7 µM (inactive)
S=C(/N=c1\sc(NCc2ccccc2)nc2sc3c(c12)CCN(N1CCc2c(sc4nc(NCc5ccccc5)s/c(=N\C(=S)NCc5ccccc5)c24)C1)C3)NCc1ccccc1	22.3 µM (inactive)	48.9 µM (inactive)	22.6 µM (inactive)	27.4 µM (inactive)	45 µM (inactive)	45 µM (inactive)	52 µM (inactive)	87.5 µM (inactive)	27.5 µM (inactive)	38 µM (inactive)	15.8 µM (inactive)	32.1 µM (inactive)	14.3 µM (inactive)	9.64 µM (inactive)	8.32 µM (inactive)	38.6 µM (inactive)	21.5 µM (inactive)	53.2 µM (inactive)	15 µM (inactive)	24.6 µM (inactive)
CC(=O)Nc1ccc2c(c1)[nH]c(=O)c1cc(Cl)ccc12	27.7 µM (inactive)	15.2 µM (inactive)	15.4 µM (inactive)	26.9 µM (inactive)	27 µM (inactive)	19.9 µM (inactive)	29.3 µM (inactive)	15.9 µM (inactive)	33 µM (inactive)	26.5 µM (inactive)	4.48 µM (inactive)	47.2 µM (inactive)	2.23 µM (inactive)	65.6 µM (inactive)	44.8 µM (inactive)	12.3 µM (inactive)	20.3 µM (inactive)	34.8 µM (inactive)	19.5 µM (inactive)	17.1 µM (inactive)
C=C(C)CN(CC#N)CC(=C)C	> 100 µM (inactive)	> 100 µM (inactive)	> 100 µM (inactive)	> 100 µM (inactive)	> 100 µM (inactive)	> 100 µM (inactive)	> 100 µM (inactive)	> 100 µM (inactive)	> 100 µM (inactive)	> 100 µM (inactive)	> 100 µM (inactive)	> 100 µM (inactive)	> 100 µM (inactive)	> 100 µM (inactive)	> 100 µM (inactive)	> 100 µM (inactive)	> 100 µM (inactive)	> 100 µM (inactive)	> 100 µM (inactive)	> 100 µM (inactive)
OCc1ccccc1O[C@H]1O[C@H](CO)[C@@H](O)[C@H](O)[C@H]1O	> 100 µM (inactive)	> 100 µM (inactive)	> 100 µM (inactive)	> 100 µM (inactive)	> 100 µM (inactive)	> 100 µM (inactive)	> 100 µM (inactive)	> 100 µM (inactive)	> 100 µM (inactive)	> 100 µM (inactive)	> 100 µM (inactive)	> 100 µM (inactive)	> 100 µM (inactive)	> 100 µM (inactive)	> 100 µM (inactive)	> 100 µM (inactive)	> 100 µM (inactive)	> 100 µM (inactive)	> 100 µM (inactive)	> 100 µM (inactive)
NC(=O)CN1CC(C2=C(O)CN(CC(N)=O)C2=O)=CC1=O	> 100 µM (inactive)	> 100 µM (inactive)	> 100 µM (inactive)	> 100 µM (inactive)	> 100 µM (inactive)	> 100 µM (inactive)	> 100 µM (inactive)	> 100 µM (inactive)	> 100 µM (inactive)	> 100 µM (inactive)	> 100 µM (inactive)	> 100 µM (inactive)	> 100 µM (inactive)	> 100 µM (inactive)	> 100 µM (inactive)	> 100 µM (inactive)	> 100 µM (inactive)	> 100 µM (inactive)	> 100 µM (inactive)	> 100 µM (inactive)
CCC1c2[nH]c3ccccc3c2C[C@H]2C(=O)NC(Cc3ccccc3)C(=O)N12 (stereo not given in full)	35.6 µM (inactive)	23.7 µM (inactive)	23.5 µM (inactive)	27.2 µM (inactive)	25.2 µM (inactive)	40 µM (inactive)	38.5 µM (inactive)	19.9 µM (inactive)	34.8 µM (inactive)	24.8 µM (inactive)	34.9 µM (inactive)	20.6 µM (inactive)	21.4 µM (inactive)	36 µM (inactive)	21 µM (inactive)	17.2 µM (inactive)	18 µM (inactive)	44.7 µM (inactive)	22.1 µM (inactive)	37.1 µM (inactive)
